The target in one test is T1, USP8 (Homo sapiens, UniProt P40818).
T1 construct: His (from pFastBac-HT vector) (N); made in house; host or cells: Sf9 or High Five insect cells, baculovirus
T1 sequence (P40818 1-1118): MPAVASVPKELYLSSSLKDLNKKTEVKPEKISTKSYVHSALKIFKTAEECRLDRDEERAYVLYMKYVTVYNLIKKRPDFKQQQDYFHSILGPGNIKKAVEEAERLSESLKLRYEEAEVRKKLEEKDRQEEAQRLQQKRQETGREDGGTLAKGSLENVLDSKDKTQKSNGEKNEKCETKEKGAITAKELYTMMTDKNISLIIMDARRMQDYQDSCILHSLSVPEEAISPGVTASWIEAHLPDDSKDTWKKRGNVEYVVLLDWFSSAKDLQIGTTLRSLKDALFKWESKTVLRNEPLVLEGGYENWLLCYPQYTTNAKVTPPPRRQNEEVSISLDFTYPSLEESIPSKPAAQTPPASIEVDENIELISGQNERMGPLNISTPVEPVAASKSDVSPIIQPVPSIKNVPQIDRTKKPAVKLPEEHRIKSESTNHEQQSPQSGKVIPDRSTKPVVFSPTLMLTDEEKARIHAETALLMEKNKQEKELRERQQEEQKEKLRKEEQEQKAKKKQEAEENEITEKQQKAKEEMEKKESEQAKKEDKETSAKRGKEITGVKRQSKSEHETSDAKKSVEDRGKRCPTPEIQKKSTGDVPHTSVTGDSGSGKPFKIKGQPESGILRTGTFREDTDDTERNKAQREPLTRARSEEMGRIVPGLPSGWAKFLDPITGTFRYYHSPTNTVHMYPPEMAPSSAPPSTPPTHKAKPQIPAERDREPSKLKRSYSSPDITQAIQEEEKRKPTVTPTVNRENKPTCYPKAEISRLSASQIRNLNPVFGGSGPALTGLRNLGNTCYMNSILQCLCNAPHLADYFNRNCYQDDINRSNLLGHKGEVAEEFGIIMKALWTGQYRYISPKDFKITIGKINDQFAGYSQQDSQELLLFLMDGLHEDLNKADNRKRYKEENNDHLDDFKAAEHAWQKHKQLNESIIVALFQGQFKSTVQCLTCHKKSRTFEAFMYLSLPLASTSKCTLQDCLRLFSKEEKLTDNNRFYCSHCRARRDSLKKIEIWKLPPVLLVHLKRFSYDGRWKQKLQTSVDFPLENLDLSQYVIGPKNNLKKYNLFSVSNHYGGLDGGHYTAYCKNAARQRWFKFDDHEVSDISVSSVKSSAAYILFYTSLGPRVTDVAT
The experiment in a line: USP8 assay with GST-Ub52-Flag substrate (HTRF). It counts as biochemical. The note with it: USP8 400 pM. The procedure: (§1) For compounds 26 to 38, the in-vitro assays on USP7 and USP8 were carried out according to the following procedure
(§2) The present examples 26 to 38 makes it possible to validate the use of GST-Ub52-Flag in an assay based on the time-resolved measurement of fluorescence emitted by […] in homogenous medium.
(§3) The assay is carried out on multiwell assay plates. The plates are analyzed on a PHERAstar fluorimeter (BMG) after an overnight incubation at 4° C. (excitation 337 nm, emission 620 and 665 nm).
(§4) The reagents used were as follows: • Solution of USP7 at 200 pM and USP8 at 400 pM in 50 mM Tris HCl pH 7.6, Bovine Serum Albumin 0.05%, DTT 5 mM. • Anti-Flag-K (CIS bio international), solution at 0.2 μM in 0.8 M KF, 0.1 Bovine Serum Albumin, Tris HCl 25 mM pH 7.6. • Anti-GST antibody-XL665 conjugate (CIS bio international), solution at 2.6 μM in 0.8 M KF, 0.1% Bovine Serum Albumin, Tris HCl 25 mM pH 7.6. • GST-Ub52-flag solution at 14.75 μM & MBP_Ub52 at 37.7 μM are prepared by dilutions from the stock solution described above in 50 mM Tris HCl pH 7.6, EDTA 0.5 mM, Bovine Serum Albumin 0.05%, DTT 5 mM.
(§5) The enzyme reaction is carried out by mixing GST-Ub52-flag solution with 5 μl of USP7 solution (200 pM final) or 5 μl of USP8 (400 pM final). This mixture is incubated for one hour at room temperature on a multiwell assay plate. A 10 μl mixture of 5 μl of anti-Flag-K solution (0.2 μM) plus 5 μl of anti-GST-XL665 antibody (2.6 μM) is added to each well of the multiwell assay plate. The plate is read after an overnight incubation at 4° C. on a PHERAstar fluorimeter (BMG).
(§6) The decrease in the signal correlates with the increase in enzyme activity i.e. the cleavage of GST-Ub52-Flag substrate. The format used is therefore entirely suitable for a method of assaying an enzyme of the deubiquitinating type such as ubiquitin specific protease, but also for determining a modulator of this enzyme activity.
(§7) The same procedures as mentioned above for assaying the activity of enzymes of the deubiquitinating type are carried out but the various reaction mixtures are incubated with identical enzyme concentration, in the presence or absence of a test compounds 26 to 38. Data (mean values+/− standard deviation) were analyzed as % of control (no compound) and plotted as percentage versus the Log of the compound concentration using GraphPad (Prism).
For orientation: In TR-FRET formats the signal depends on donor and acceptor labels being close together.

Test [1] deals with HCT116 colon cancer cells. In words: HCT116 cell viability and proliferation assay (MTS). The class given is cell-based. The note with it: Homo sapiens, HCT-116, 72 h, HCT116, 72 hours, read-out: Cell viability (MTS): HCT116 GI50 Day3. The procedure:
HCT116 colon cancer cells were obtained from ATCC (American Type Culture Collection), and maintained in Mc Coy's 5A medium containing 10% FBS, 3 mM glutamine and 1% penicillin/streptomycin. Cells were incubated at 37° C. in a humidified atmosphere containing 5% CO2.
Cell viability was assayed using the MTS technique in 96-well culture plates (CellTiter 96® Aqueous Non-Radioactive Cell Proliferation Assay, Promega) according to the manufacturer's instructions. MTS (3-(4,5-dimethyl-thiazol-2-yl)-5-(3-carboxy-methoxyphenyl)-2-(4-sulfophenyl)-2H-tetra-zolium) is a MTT-derived tetrazolium that is reduced in metabolically active cells into a soluble, cell-permeant formazan. The amount of formazan, detected by its absorbance at 492 nm is proportional to the number of living, metabolically active cells.
10^3 HCT116 cells were seeded per well. 24 hours later, the medium was changed and the cells treated in triplicate with the concentrations of each compound from 100 μM to 50 nM. The compounds were diluted in 100% DMSO, whose final concentration on cells was kept at 0.5%.
Cells were incubated with the compounds for 72 hours, and their viability then assayed by the addition of MTS for 2 hours. Absorbance at 492 nm was measured directly from the 96-well culture plates. Gl50 (Growth Inhibition 50) concentrations for each compound were calculated using a sigmoidal variable slope fit (Prism 4.0, Graphpad Softwares). Values represent mean of three independent experiments.

For another test, the target named is T2, USP7 (Homo sapiens, UniProt Q93009).
T2 construct: Full-length wild-type human USP7 and its catalytic mutant (cysteine 223 replaced by alanine, C223A) were produced as N-terminally His-tagged fusions; His (N); made in house; host or cells: Spodoptera frugiperda Sf9 (or High Five) insect cells, baculovirus pFastBac-HT-B
In words: USP7 assay with GST-Ub52-Flag substrate (HTRF). It counts as biochemical. The note with it: USP7 200 pM. The procedure:
as §1, §2, §3, §4, §5, §6, §7

As usually defined, the IC50 is the concentration that inhibits the measured activity by half. A lower IC50 goes with greater potency. One may read the GI50 as the concentration at which growth is held to half of that of the control. As to `O=C(NCC1CCN(Cc2ccccc2)CC1)c1ccc2c(Cl)c3c(nc2c1)CCCC3` [Example 32, N-((1-benzylpiperidin-4-yl)methyl)-9--chloro-5,6,7,8-tetrahydroacridine-3-carboxamide], the IC50 against USP8 is greater than 200 µM; on USP7 it was 17.6 µM. For the same compound, the GI50 in test [1] worked out at 3.1 µM.

`CCN1CCC[C@H]1CNC(=O)c1ccc2c(Cl)c3c(nc2c1)CCCC3` [Example 37, (S)-9-chloro-N-((1-ethylpyrrolidin-2-yl)methyl)-5,6,7,8-tetrahydroacridine-3-carboxamide]: the IC50 on USP8 is greater than 200 µM; on USP7, 25.9 µM. Also, in test [1], the GI50 is 8.7 µM.

Consider `CN(C)CC(C)(C)CNC(=O)c1ccc2c(Cl)c3c(nc2c1)CCCC3` [Example 38, 9-chloro-N-(3-(dimethylamino)-2,2-dimethylpropyl)-5,6,7,8-tetrahydroacridine-3-carboxamide], for which the values for the IC50 on USP8 and at USP7 were greater than 200 µM and 49.2 µM, respectively. Moreover, the GI50 in test [1] came to 11 µM.

As to `CN1CCC(CN2CCN(C(=O)c3ccc4c(Cl)c5c(nc4c3)CCCC5)CC2)CC1` [Example 29, (9-chloro-5,6,7,8-tetrahydroacridine-3-yl)(4-((1-methylpiperidin-4-yl)methyl)piperazin-1-yl)methanone], the IC50 at USP8 was greater than 200 µM; at USP7, 8.5 µM. In addition, the GI50 in test [1] came to 7.3 µM.

Take `O=C(NCCCN1CCc2ccccc2C1)c1ccc2c(Cl)c3c(nc2c1)CCCC3` [Example 39, 9-chloro-N-(3-(3,4-dihydroisoquinolin-2(1H)-yl)propyl)-5,6,7,8-tetrahydroacridine-3-carboxamide]: the IC50 on USP8 was greater than 200 µM; on USP7, 38.5 µM. For the same compound, the GI50 in test [1] stood at 7.6 µM.

Take `O=C(c1ccc2c(Cl)c3c(nc2c1)CCCC3)N1CCCCC1` [Example 31, (9-chloro-5,6,7,8-tetrahydroacridine-3-yl)(piperidin-1-yl)methanone]: the IC50 was greater than 200 µM at USP8 and 24.5 µM on USP7. Also, the GI50 in test [1] came to 11.4 µM.

As to `O=C(NCC1CCN(CCc2ccccc2)CC1)c1ccc2c(Cl)c3c(nc2c1)CCCC3` [Example 34, 9-chloro-N-((1-phenethylpiperidin-4-yl)methyl)-5,6,7,8-tetrahydroacridine-3-carboxamide], the IC50 is greater than 200 µM against USP8 and 24.5 µM at USP7. Moreover, in test [1], the GI50 was 2.8 µM.

Consider `O=C(NCCN1CCCCC1)c1ccc2c(Cl)c3c(nc2c1)CCCC3` [Example 28, 9-chloro-N-(2-(piperidin-1-yl)ethyl)-5,6,7,8-tetrahydroacridine-3-carboxamide], for which the IC50 was greater than 200 µM at USP8 and 11.9 µM at USP7. Moreover, the GI50 in test [1] stood at 8.8 µM.

(Values after patent publication US9328093B2, “Selective inhibitors of ubiquitin specific protease 7, the pharmaceutical compositions thereof and their therapeutic applications” (HYBRIGENICS SA, priority 2010, dated 2016).)
